Read-outs that look alike come from different tables or passages of the source.
Tests used:
[1] = tested on: breast cancer cell line MDA MB231; test: Crystal violet assay, MDA MB231; format: cell-based; details: Homo sapiens, MDA-MB-231, n = 3
Description: (§1) For quantification, cells are treated with crystal violet, a dye that stains proteins. After washing away of excess dye, the remaining crystal violet is dissolved in a sodium citrate solution. The solution is analyzed photometrically at 590 nm. The optical density of this solution depends on the concentration of crystal violet and therefore on the amount of cells. […] To reduce effects of evaporation, only the inner 60 wells of 96-well plates (coated with 0.1% gelatine solution for studies with HUVEC) were used for experiments.
(§2) Cells were treated with 2 μl of the working solution 24 h after seeding. Final compound concentrations in the well were 10 μM for the first round of screening. The final DMSO concentration was 0.5%. […] After finishing the addition of compounds, the T0-plate was stained with crystal violet for giving the cell density at time point zero. […] After air drying of the plates the crystal violet on the cells was dissolved in 100 μl of sodium citrate solution, and the absorption was measured with a plate reader at 590 nm.
(§3) Mean values were corrected with the absorption of stained medium and the corrected absorption of T0 cells. Cell growth was calculated relative to DMSO control for data comparison. IC50 values (50% inhibition of cell growth) were determined with GraphPad Prism® (Version 4.03) using nonlinear regression (sigmoidal dose-response with variable slope). […]

[2] = tested on: colon cancer cell line HT29; test: Cell proliferation assay using crystal violet, HT29; format: cell-based; details: Homo sapiens, HT-29, n = 3, 24 h incubation
Description: as §1
(§4) Cells were seeded at a density of 5 000 cells per well in 100 μl growth medium (HUVEC) or 20 000 (HCT116), 15 000 (SW480 and 518A2) or 10 000 (HT29) cells per well in 200 μl growth medium in 55 wells per plate. 5 wells were filled with medium only. Additionally, a 96-well plate with cells in 12 wells and medium in 6 wells was prepared as T0-plate. The next day, additional 98 μl of growth medium were added in every well (only HUVEC).
(§5) Cells were treated with 2 μl of the working solution 24 h after seeding. Final compound concentrations in the well were 10 μM for the first round of screening. The final DMSO concentration was 0.5%. […] After finishing the addition of compounds, the T0-plate was stained with crystal violet for giving the cell density at time point zero. Before staining, the growth medium was poured away. Wells were filled with 50 μl crystal violet solution for 10 min. Then the staining solution was washed away with water. Since crystal violet is environmentally hazardous the waste was collected and disposed in an appropriate manner. After air drying of the plates the crystal violet on the cells was dissolved in 100 μl of sodium citrate solution, and the absorption was measured with a plate reader at 590 nm.
as §3

[3] = tested on: vascular smooth muscle cells (VSMC); test: Crystal violet assay, VSMC; format: cell-based; details: Rattus norvegicus, n = 3
Description: as §1, §2, §3

[4] = tested on: K562 (Chronic myeloid leukemia); test: Cell viability assay using EZ4U viability kit, K562; format: cell-based; details: Homo sapiens
Description: (§6) For quantification, cells are treated with a tetrazolium salt as indicator of cell viability. […] Then, the solution is analyzed photometrically at 450 nm with 620 nm as reference.
(§7) The final DMSO concentration was 0.5%. […] Then, wells were filled with 20 μl substrate solution for 2 to 4 hours and analyzed.
(§8) Cell viability was calculated relative to DMSO control for data comparison. IC50 values (50% inhibition of cell growth) were determined with GraphPad Prism® (Version 4.03) using nonlinear regression (sigmoidal dose-response with variable slope).

[5] = tested on: hematological cell lines; test: Viability assay in cell lines, summary of Table 4; format: cell-based; details: after 48 hours in most of the cell lines, read-out: IC50-values obtained by the viability assay in cell lines
Description: as §6, §7, §8

[6] = tested on: colon carcinoma cell line HCT116p53ko; test: Crystal violet assay, HCT116p53ko; format: cell-based; details: n = 3
Description: as §1, §2, §3

[7] = tested on: CLL cell lines MEC-1 and MEC-2; test: Annexin V-FITC / propidium iodide staining, apoptosis in CLL cell lines; format: cell-based; details: MEC-1 and MEC-2; 24 and 48 hours incubation; FIG. 4
Description: Apoptosis was detected using propidium iodide/Annexin V FACS staining (Bender MedSystems).
Annexin V binds to phosphatidylserine which is exposed at the cell surface during execution of apoptosis. First, cells were seeded out at a density of 1.5 to 2.5 million cells per well in 12 well plates and then growth medium was added to each well to get a final volume of 2.5 ml. Compounds to be tested were diluted with medium from a 10 mM stock solution in DMSO to get different concentrations and cells were treated with 25 μl of these solutions. The final DMSO concentration was 0.5%. All treatments and controls were performed twice. Cells were incubated at 37° C. and 5% CO2 for 24 h and 48 h. Then, growth medium was removed by centrifugation, the supernatant discarded and 200 μl of an Annexin V solution were added. After 10 minutes in the dark, cells were washed once with Annexin buffer and the solution removed by centrifugation. The supernatant was discarded again and cells were suspended in 200 μl of a propidium iodide solution. Cells were measured by flow cytometry with a total of 10 000 events. Data were analyzed with CellQuest Pro™.
Compounds 1 and 22 were also tested on the CLL cell lines MEC-1 and MEC-2 in comparison with fludarabine and cyclophosphamide, two compounds used in the treatment of hematological malignancies (MEC-1 is a fludarabine-resistant cell line).

[8] = tested on: SU-DHL-9 (Non Hodgkin's lymphoma); test: Cell viability assay using EZ4U viability kit, SU-DHL-9; format: cell-based
Description: as §6, §7, §8

[9] = tested on: HUVEC; test: Cell proliferation assay using crystal violet, HUVEC; format: cell-based; details: Homo sapiens
Description: as §1, §4, §5
Mean values were corrected with the absorption of stained medium and the corrected absorption of T0 cells. Cell growth was calculated relative to DMSO control for data comparison.

[10] = tested on: CCRF-CEM (T-cell acute lymphoblastic leukemia); test: Cell viability assay using EZ4U viability kit, CCRF-CEM; format: cell-based; details: Homo sapiens
Description: as §6, §7, §8

[11] = tested on: melanoma cell line 518A2; test: Cell proliferation assay using crystal violet, 518A2; format: cell-based; details: for IC50: Homo sapiens, 518A2, crystal violet assay, n = 3, 48 h incubation
Description: as §1, §4, §5
Mean values were corrected with the absorption of stained medium and the corrected absorption of T0 cells. Cell growth was calculated relative to DMSO control for data comparison. IC50 values (50% inhibition of cell growth) were determined with GraphPad Prism® (Version 4.03) using nonlinear regression (sigmoidal dose-response with variable slope).
Compounds showing an inhibition of proliferation of more than 50% at a concentration of 10 μM were defined as active, and their IC50-values were determined.

[12] = tested on: SU-DHL-6 (Non Hodgkin's lymphoma); test: Cell viability assay using EZ4U viability kit, SU-DHL-6; format: cell-based; details: Homo sapiens
Description: as §6, §7, §8

[13] = 24 h incubation, read-out: IC50 (nM) K562 24 h (converted)
[14] = 48 h incubation, read-out: IC50 (nM) K562 48 h (converted)
[15] = 24 h incubation, read-out: IC50 (nM) SU-DHL-9 24 h
[16] = 48 h incubation, read-out: IC50 (nM) SU-DHL-9 48 h
[17] = 24 h incubation, read-out: IC50 (nM) CCRF-CEM 24 h
[18] = 48 h incubation, read-out: IC50 (nM) CCRF-CEM 48 h
[19] = 24 h incubation, read-out: IC50 (nM) SU-DHL-6 24 h
[20] = 48 h incubation, read-out: IC50 (nM) SU-DHL-6 48 h

IC50 [1] [nM] | IC50 [2] [nM] | IC50 [3] [nM] | IC50 [4, 13] [nM] | IC50 [4, 14] [nM] | IC50 [6] [nM] | IC50 [8, 15] [nM] | IC50 [8, 16] [nM] | IC50 [10, 17] [nM] | IC50 [10, 18] [nM] | IC50 [11] [nM] | IC50 [12, 19] [nM] | IC50 [12, 20] [nM] | melting point [°C] | SMILES | IC50 [5] [µM] | apoptosis induction compared with fludarabine and cyclophosphamide [7] | IC50 ([9]; n = 3, 48 h incubation, read-out: IC50 (nM) HUVEC (converted)) [nM] | IC50 ([9]; n = 3, read-out: IC50 (nM) HUVEC (Table 2)) [nM] | potency relative to cisplatin ([11]; melanoma cell line 518A2, ratio of IC50 values)
630 | 540 | > 100000 | 20900 | 50 | 100 | 60 | 50 | 70 | 70 | 150 | 180 | 20 | – | COc1ccccc1/C=C/C=C/C(=O)c1cc(OC)c(OC)c(OC)c1 [Compound 1, 5-(2-Methoxyphenyl)-1-(3′,4′,5′-trimethoxyphenyl)-2,4-pentadiene-1-one] | ~0.01 | induced apoptosis in a lower concentration range than fludarabine and cyclophosphamide | 340 | 280 | –
– | – | – | 17700 | 13700 | – | 30 | 50 | 40 | 40 | 40 | 10 | 40 | 96 to 97 | CCOc1ccccc1C(=O)/C=C/c1ccc2ccccc2c1 [Compound 22, 3-(2-Naphthyl)-1-(2′-ethoxyphenyl)-2-propene-1-one] | ~0.01 | induced apoptosis in a lower concentration range than fludarabine and cyclophosphamide | – | – | about 250 times

From patent US20130123367A1, “VINYLOGOUS CHALCONE DERIVATIVES AND THEIR MEDICAL USE” (MEDIZINISCHE UNIVERSITAT WIEN, priority 2010, published 2013)
